Experiments:
[1] = system: pancreatic cancer cell AsPC-1; assay: Suppressing proliferation of pancreatic cancer cell AsPC-1 in vitro (MTT, number of living cells); type: cell-based; settings: Homo sapiens, ASPC1, 72 h, AsPC-1, RPMI 1640 medium, incubated 3 days with test compound
Description: (§1) A cell suspension of pancreatic cancer cell AsPC-1 (20000/ml) in RPMI 1640 medium (Flow Laboratories) supplemented with 10% of inactivated fetal calf serum, 1 mM of sodium pyruvate and 25 mM of HEPES [2-{4-(2-hydroxyethyl)-1-piperazinyl}ethanesulfonic acid] was added to 96-well micro-culture plates (50ul/well). The culture plates were incubated at 37°C in a 5% CO₂ incubator. On the following day, the solution of each test compound dissolved in dimethylformamide and diluted (3-fold steps) was added (50 ul/well), which was incubated for further 3 days. The culture broth containing the test compounds was eliminated, and the cells were washed, to which was added a solution of MTT pigment, and the number of living cells was calculated [Tada et al. J. Immunol. Methods, 93 p.157 (1986)]. The number of cells in the control group containing no test compound was assumed to be 100%, and the respective ratios of cell numbers in groups containing the respective test compounds were calculated to thereby determine the concentrations (IC₅₀ value) of the respective test compounds necessary to suppress the number of living cells to 50% of that of the control group.

[2] = system: human pancreatic carcinoma cells AsPC-1; assay: Suppressing proliferation of pancreatic carcinoma in vivo (AsPC-1 transplanted subcutaneously into nude mice, tumor volume); set-up: species or system Balb/c nude mice; settings: once for two days during 14 days, tumor volume of treated group to control group
Description: The human pancreatic carcinoma cells AsPC-1 (3x10⁶cells) were transplanted subcutaneously into Balb/c nude mice (7 week old) at the flank. On 35th day after the transplantation, the tumor size was measured. Five mice (per group) with almost the same tumor size were employed for the experiment. These groups were respectively administered intraperitoneally with No. 1, 2 and 19 of the compounds of this invention dissolved in corn oil, once for two days during 14 days. On the day following the completion of administration, the tumor size was measured, and the tumor volume was calculated by the formula: Tumor volume = major axis x minor axis x minor axis x (1/2) [formula] . The ratio of the tumor volume in the treated group to that in a control group to which corn oil alone was administered was calculated as a proliferation ratio.

[3] = system: pancreatic cancer cell strain PC-3; assay: Suppressing proliferation of PC-3 cells in vitro (MTT, number of living cells); type: cell-based; settings: 96 h, PC-3, F-12K medium, incubated 4 days with test compound
Description: as §1
For the test of pancreatic cancer cell strain PC-3, the same method in the case of AcPC-1 was employed excepting the use of F-12K medium containing 10% inactivated fetal calf serum (Flow Laboratories) and change of the incubation period after adding the test compounds to 4 days, to thereby determine the IC₅₀ value (nm).

[4] = Dosage 16.7 mg/kg intraperitoneally in corn oil

| IC50 [1] | IC50 [3] | SMILES | Proliferation ratio (%) [2, 4] | Proliferation ratio (%) ([2]; Dosage 6.7 mg/kg intraperitoneally in corn oil) |
| --- | --- | --- | --- | --- |
| 440 nM | 120 nM | CC(C)(C)n1ncc(SCc2ccccc2)c(Cl)c1=O [Compound 2, 2-t-butyl-4-chloro-5-benzylthio-3 (2H)pyridazinone] | 48% | – |
| 180 nM | < 1.52 nM | CC(C)(C)c1ccc(COc2cnn(C(C)(C)C)c(=O)c2Cl)cc1 [Compound 19, 2-t-butyl-4-chloro-5-(4-t-butyl)benzyloxy-3(2H)pyridazinone] | 29% | – |

| SMILES | IC50 [1] | IC50 [3] | Proliferation ratio (%) [2, 4] | Proliferation ratio (%) ([2]; Dosage 6.7 mg/kg intraperitoneally in corn oil) |
| --- | --- | --- | --- | --- |
| CC(C)(C)c1ccc(CSc2cnn(C(C)(C)C)c(=O)c2Cl)cc1 [Compound 1, 2-t-butyl-4-chloro-5-(4-t-butyl)benzylthio-3(2H)pyridanzine] | 16 nM | < 1.52 nM | – | 56% |

— patent EP0665223A1, “Antitumor agent, novel 3(2H)-pyridazinone derivatives and their preparation” (TAKEDA CHEMICAL INDUSTRIES, LTD., priority 1994, dated 1995)
